# Measured values published in PubChem BioAssay AID248 (DTP/NCI, 2004).
# “And” between values parts separate entries of the source, which are not always exact repeats. Identical values can stand only once. Inconclusive results and toxic doses are left out.
# System: L1210 leukemia ip in BDF1 mice, survival T/C
# Assay: NCI In Vivo Anticancer Drug Screen. Data for tumor model L1210 Leukemia (intraperitoneal) in B6D2F1 (BDF1) mice
# Conditions: higher = longer survival
# How it was run: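 Tumor was transplanted into mice, which were then dosed with test compound or vehicle alone. Survival was recorded for each group, and the treated figure was expressed relative to the control figure.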
# [1] = endpoint: mean survival time, dose: 50.0 mg/kg/injection, schedule: Q04DX003 (ip), vehicle: saline
# [2] = endpoint: mean survival time, dose: 100.0 mg/kg/injection, schedule: Q04DX003 (ip), vehicle: saline
# [3] = endpoint: mean survival time, dose: 100.0 mg/kg/injection, schedule: Q01DX001 (ip), vehicle: saline
# [4] = endpoint: mean survival time, dose: 200.0 mg/kg/injection, schedule: Q01DX001 (ip), vehicle: saline
# [5] = endpoint: mean survival time, dose: 400.0 mg/kg/injection, schedule: Q01DX001 (ip), vehicle: saline
# [6] = endpoint: mean survival time, dose: 100.0 mg/kg/injection, schedule: Q01DX Z (ip), vehicle: methylcellulose (MC)
# [7] = endpoint: mean survival time, dose: 6.25 mg/kg/injection, schedule: Q01DX009 (ip), vehicle: saline
# [8] = endpoint: mean survival time, dose: 12.5 mg/kg/injection, schedule: Q01DX009 (ip), vehicle: saline
# [9] = endpoint: mean survival time, dose: 12.5 mg/kg/injection, schedule: Q04DX003 (ip), vehicle: saline
# [10] = endpoint: mean survival time, dose: 25.0 mg/kg/injection, schedule: Q01DX009 (ip), vehicle: saline
# [11] = endpoint: mean survival time, dose: 25.0 mg/kg/injection, schedule: Q04DX003 (ip), vehicle: saline
# [12] = endpoint: mean survival time, dose: 100.0 mg/kg/injection, schedule: Q01DX009 (ip), vehicle: Klucel (hydroxypropylcellulose) (HPC)
# [13] = endpoint: mean survival time, dose: 200.0 mg/kg/injection, schedule: Q01DX009 (ip), vehicle: Klucel (hydroxypropylcellulose) (HPC)
# [14] = endpoint: mean survival time, dose: 400.0 mg/kg/injection, schedule: Q01DX009 (ip), vehicle: Klucel (hydroxypropylcellulose) (HPC)
compound,measurement,setting,value
O=C(O)CCc1ccccc1,T/C,[1],98 % of control
same,T/C,"endpoint: mean survival time, dose: 100.0 mg/kg/injection, schedule: Q01DX009 (ip), vehicle: saline with Tween-80",92 % of control
same,T/C,[2],104 % of control
same,T/C,"endpoint: mean survival time, dose: 200.0 mg/kg/injection, schedule: Q01DX009 (ip), vehicle: saline with Tween-80",95 % of control
same,T/C,"endpoint: mean survival time, dose: 200.0 mg/kg/injection, schedule: Q04DX003 (ip), vehicle: saline",95 % of control
same,T/C,"endpoint: mean survival time, dose: 400.0 mg/kg/injection, schedule: Q01DX009 (ip), vehicle: saline with Tween-80",86 % of control
same,T/C,"endpoint: mean survival time, dose: 400.0 mg/kg/injection, schedule: Q04DX003 (ip), vehicle: saline",98 % of control
CC1CCc2cc3c(cc2C1)S(=O)(=O)c1ccccc1-3 (centres undefined),T/C,[3],96 % of control
same,T/C,[4],86 % of control
same,T/C,[5],86 % of control
O=C1c2c(O)cccc2C(C2OC(CO)C(O)C(O)C2O)c2cc(CO)cc(O)c21 (centres undefined),T/C,[3],98 % of control
same,T/C,[4],98 % of control
same,T/C,[5],104 % of control
CC(C)CCC(CCC(C)C)NCC(C)OC(=O)c1ccc(N)cc1 (centres undefined),T/C,"endpoint: mean survival time, dose: 75.0 mg/kg/injection, schedule: Q01DX001 (ip), vehicle: carboxymethylcellulose (CMC)",93 % of control
same,T/C,"endpoint: mean survival time, dose: 150.0 mg/kg/injection, schedule: Q01DX001 (ip), vehicle: carboxymethylcellulose (CMC)",89 % of control
Cc1nc2nc(N)nc(N)c2nc1CNc1ccc(C(=O)NC(CCC(=O)O)C(=O)O)cc1 (centres undefined),T/C,"endpoint: median survival time, dose: 0.39 mg/kg/injection, schedule: Q01DX009 (ip), vehicle: other",100 % of control
same,T/C,"endpoint: median survival time, dose: 0.65 mg/kg/injection, schedule: Q01DX009 (ip), vehicle: other",100 % of control
same,T/C,"endpoint: median survival time, dose: 1.08 mg/kg/injection, schedule: Q01DX009 (ip), vehicle: other",100 % of control
same,T/C,"endpoint: median survival time, dose: 1.8 mg/kg/injection, schedule: Q01DX009 (ip), vehicle: other",100 % of control
same,T/C,"endpoint: median survival time, dose: 5.0 mg/kg/injection, schedule: Q01DX009 (ip), vehicle: other",100 % of control
same,T/C,"endpoint: median survival time, dose: 14.0 mg/kg/injection, schedule: Q01DX009 (ip), vehicle: other",110 % of control
same,T/C,"endpoint: median survival time, dose: 108.0 mg/kg/injection, schedule: Q01DX009 (ip), vehicle: other",100 % of control
same,T/C,"endpoint: median survival time, dose: 180.0 mg/kg/injection, schedule: Q01DX009 (ip), vehicle: other",105 % of control
same,T/C,"endpoint: median survival time, dose: 300.0 mg/kg/injection, schedule: Q01DX009 (ip), vehicle: other",105 % of control
CN(C)c1ccccc1CN1CCCN(Cc2ccccc2N(C)C)C1c1ccncc1,T/C,"endpoint: mean survival time, dose: 6.0 mg/kg/injection, schedule: Q12HX018 (ip), vehicle: other",96 % of control
same,T/C,"endpoint: mean survival time, dose: 12.0 mg/kg/injection, schedule: Q12HX018 (ip), vehicle: other",103 % of control
same,T/C,"endpoint: mean survival time, dose: 24.0 mg/kg/injection, schedule: Q12HX018 (ip), vehicle: other",101 % of control
Cc1cnc(SCc2ccc(Cl)cc2)nc1N(Cc1ccccc1)Cc1ccccc1,T/C,[6],87 % of control
CC1C[N+](C)=C2CCCCC2=C1N (centres undefined),T/C,[7],105 % of control
same,T/C,"endpoint: mean survival time, dose: 6.25 mg/kg/injection, schedule: Q04DX003 (ip), vehicle: saline",96 % of control
same,T/C,[8],98 % of control
same,T/C,[9],98 % of control
same,T/C,[10],102 % of control
same,T/C,[11],108 % of control
CC1=COC(C)(C2NC(C)CC(C)(C)N2)CC1 (centres undefined),T/C,"endpoint: mean survival time, dose: 44.0 mg/kg/injection, schedule: Q01DX Z (ip), vehicle: methylcellulose (MC)",100 % of control
same,T/C,[6],95 % of control
C[N+](C)(C)Cc1ccccc1,T/C,"endpoint: mean survival time, dose: 1.56 mg/kg/injection, schedule: Q01DX009 (ip), vehicle: saline",102 % of control
same,T/C,"endpoint: mean survival time, dose: 3.12 mg/kg/injection, schedule: Q01DX009 (ip), vehicle: saline",91 % of control
same,T/C,"endpoint: mean survival time, dose: 5.0 mg/kg/injection, schedule: Q01DX001 (ip), vehicle: saline",98 % of control
same,T/C,[7],117 % of control
same,T/C,"endpoint: mean survival time, dose: 6.5 mg/kg/injection, schedule: Q01DX009 (ip), vehicle: saline",100 % of control
same,T/C,"endpoint: mean survival time, dose: 10.0 mg/kg/injection, schedule: Q01DX001 (ip), vehicle: saline",102 % of control and 109 % of control
same,T/C,"endpoint: mean survival time, dose: 12.0 mg/kg/injection, schedule: Q04DX003 (ip), vehicle: saline",113 % of control
same,T/C,[8],100 % of control
same,T/C,"endpoint: mean survival time, dose: 20.0 mg/kg/injection, schedule: Q01DX001 (ip), vehicle: saline",98 % of control and 91 % of control
same,T/C,[10],99 % of control and 107 % of control
same,T/C,[11],87 % of control
same,T/C,"endpoint: mean survival time, dose: 50.0 mg/kg/injection, schedule: Q01DX009 (ip), vehicle: saline",96 % of control
same,T/C,"endpoint: mean survival time, dose: 100.0 mg/kg/injection, schedule: Q01DX009 (ip), vehicle: saline",96 % of control
CCC(=O)N(C)C(=NC)c1ccc(NC(=O)c2ccc(C(=O)Nc3ccc(C(=NC)N(C)C(=O)CC)cc3)cc2)cc1,T/C,"endpoint: mean survival time, dose: 75.0 mg/kg/injection, schedule: Q01DX015 (ip), vehicle: carboxymethylcellulose (CMC)",90 % of control
same,T/C,"endpoint: mean survival time, dose: 100.0 mg/kg/injection, schedule: Q01DX015 (ip), vehicle: carboxymethylcellulose (CMC)",91 % of control
same,T/C,"endpoint: mean survival time, dose: 150.0 mg/kg/injection, schedule: Q01DX015 (ip), vehicle: carboxymethylcellulose (CMC)",90 % of control
same,T/C,"endpoint: mean survival time, dose: 200.0 mg/kg/injection, schedule: Q01DX015 (ip), vehicle: carboxymethylcellulose (CMC)",97 % of control
COc1ccc2[nH]c3c(c2c1)CSc1ccccc1-3,T/C,[12],110 % of control
same,T/C,[13],104 % of control
same,T/C,[14],94 % of control
Cn1cccc1/C=C/[N+](=O)[O-],T/C,"endpoint: mean survival time, dose: 50.0 mg/kg/injection, schedule: Q01DX001 (ip), vehicle: saline",104 % of control
same,T/C,[3],91 % of control
BrCCCCCCCCCCC1(c2ccccc2)OCCO1,T/C,[12],107 % of control
same,T/C,[13],98 % of control
same,T/C,[14],93 % of control
CC1CN=C(c2ccc(NC(=O)c3ccc(C(=O)Nc4ccc(C5=NCC(C)CN5)cc4)nc3)cc2)NC1 (centres undefined),T/C,"endpoint: mean survival time, dose: 2.0 mg/kg/injection, schedule: Q01DX001 (ip), vehicle: water",97 % of control and 101 % of control
same,T/C,"endpoint: mean survival time, dose: 4.0 mg/kg/injection, schedule: Q01DX001 (ip), vehicle: water",101 % of control and 106 % of control
same,T/C,"endpoint: mean survival time, dose: 4.0 mg/kg/injection, schedule: Q01DX015 (ip), vehicle: water",250 % of control and 288 % of control
same,T/C,"endpoint: mean survival time, dose: 6.0 mg/kg/injection, schedule: Q01DX001 (ip), vehicle: water",106 % of control and 115 % of control
O=C(c1ccccc1)c1ccc(-c2ccccc2)cc1,T/C,"endpoint: mean survival time, dose: 87.5 mg/kg/injection, schedule: Q04DX003 (ip), vehicle: Klucel (hydroxypropylcellulose) (HPC)",97 % of control
same,T/C,"endpoint: mean survival time, dose: 175.0 mg/kg/injection, schedule: Q04DX003 (ip), vehicle: Klucel (hydroxypropylcellulose) (HPC)",95 % of control
same,T/C,"endpoint: mean survival time, dose: 350.0 mg/kg/injection, schedule: Q04DX003 (ip), vehicle: Klucel (hydroxypropylcellulose) (HPC)",97 % of control
CCCC(=O)Nc1ccn(C2OC(COC(=O)CCC)C(OC(=O)CCC)C2OC(=O)CCC)c(=O)n1 (centres undefined),T/C,"endpoint: mean survival time, dose: 177.0 mg/kg/injection, schedule: Q01DX001 (ip), vehicle: carboxymethylcellulose (CMC)",101 % of control
same,T/C,"endpoint: mean survival time, dose: 266.0 mg/kg/injection, schedule: Q01DX001 (ip), vehicle: carboxymethylcellulose (CMC)",116 % of control
same,T/C,"endpoint: mean survival time, dose: 400.0 mg/kg/injection, schedule: Q01DX001 (ip), vehicle: carboxymethylcellulose (CMC)",117 % of control
CN(C(=O)Cl)c1ccccc1,T/C,"endpoint: mean survival time, dose: 12.5 mg/kg/injection, schedule: Q01DX009 (ip), vehicle: Klucel (hydroxypropylcellulose) (HPC)",95 % of control
same,T/C,"endpoint: mean survival time, dose: 12.5 mg/kg/injection, schedule: Q04DX003 (ip), vehicle: Klucel (hydroxypropylcellulose) (HPC)",95 % of control
same,T/C,"endpoint: mean survival time, dose: 25.0 mg/kg/injection, schedule: Q01DX009 (ip), vehicle: Klucel (hydroxypropylcellulose) (HPC)",95 % of control
same,T/C,"endpoint: mean survival time, dose: 25.0 mg/kg/injection, schedule: Q04DX003 (ip), vehicle: Klucel (hydroxypropylcellulose) (HPC)",97 % of control
same,T/C,"endpoint: mean survival time, dose: 50.0 mg/kg/injection, schedule: Q01DX009 (ip), vehicle: Klucel (hydroxypropylcellulose) (HPC)",93 % of control
same,T/C,"endpoint: mean survival time, dose: 50.0 mg/kg/injection, schedule: Q04DX003 (ip), vehicle: Klucel (hydroxypropylcellulose) (HPC)",93 % of control
CCc1cc2oc(C)c(C)c2c(N=Nc2ccccc2OC)c1O,T/C,"endpoint: mean survival time, dose: 100.0 mg/kg/injection, schedule: Q04DX002 (ip), vehicle: Klucel (hydroxypropylcellulose) (HPC)",105 % of control
same,T/C,"endpoint: mean survival time, dose: 200.0 mg/kg/injection, schedule: Q04DX002 (ip), vehicle: Klucel (hydroxypropylcellulose) (HPC)",102 % of control
same,T/C,"endpoint: mean survival time, dose: 400.0 mg/kg/injection, schedule: Q04DX002 (ip), vehicle: Klucel (hydroxypropylcellulose) (HPC)",102 % of control
Cc1cc(C)[n+](C)c(C)c1,T/C,[9],96 % of control
same,T/C,[11],93 % of control
same,T/C,[1],101 % of control
same,T/C,[2],93 % of control
